Earlier results, collected in article PMC10712729, “A Phase I Trial of the Dual MET Kinase/OCT-2 Inhibitor OMO-1 in Metastatic Solid Malignancies Including MET Exon 14 Mutated Lung Cancer” (The Oncologist, 2023).

Columns and labels:
[1] = tested on: METex14 mutated NSCLC; design: method as in PMID 32469185, PMID 32877583; settings: METex14 mutated NSCLC ref 9, 10; cited from earlier work
[2] = design: method as in PMID 32469185, PMID 32877583; settings: cited from earlier work
[3] = in vivo; cited from earlier work

## CNC(=O)c1ccc(-c2cnc3ncc(Cc4ccc5ncccc5c4)n3n2)cc1F [capmatinib]
[1]
  median response duration: 12.6 months
  object response rates: 68%
[2]
  diarrhea, all grades: 17%
  nausea, all grades: 46%
  vomiting, all grades: 26%

## Cn1cc(-c2ccc3nnc(C(F)(F)c4ccc5ncccc5c4)n3n2)cn1 [JNJ-38877605]
[3]
  renal toxicity: renal toxic properties

## CN1CCC(COc2cnc(-c3cccc(Cn4nc(-c5cccc(C#N)c5)ccc4=O)c3)nc2)CC1 [tepotinib]
[1]
  median response duration: 10.8 months
  object response rates: 43%
[2]
  diarrhea, all grades: 22%
  nausea, all grades: 26%
  vomiting, all grades: 6%
